Source: US20100016352A1, “COMPOUNDS AND METHODS FOR TREATING ESTROGEN RECEPTOR-RELATED DISEASES” (priority 2008, published 2010)

Experiments:
[1] = test system: Human Breast Cancer BCAP-37 Cells xenografts; experiment: In vivo efficacy in inhibiting growth of human breast cancer BCAP-37 cells xenografts in nude mice; settings: Mus musculus, Bcap37, po, 360 h; female nude mice, BCAP-37 xenograft, 35 mg/kg fed once every day for 15 days, tumor weight vs olive oil negative control; read-out: Inhibition rate of tumor growth (%)
Experimental: The In Vivo Efficacy in Inhibiting Growth of Human Breast Cancer BCAP-37 Cells Xenografts in Nude Mice Model
Nude mice with breast cancer xenografts are treated with the test compounds 5, 6, 8, 14, 22, 36 and 38 to test their effect on inhibiting tumor growth. Tumor tissues are taken from nude mice bearing BCAP-37 breast cancer and cut into small pieces. Several pieces of the tumor tissues are implanted into the armpit under the right front limb of female nude mice. After the implantation, the mice are fed with E2β solution once every day at the dosage of 7 μg per mouse for 6 days to stimulate tumor growth in the receiving mice. Starting on the seventh day, the mice are fed with the test compounds at the dosage of 35 mg/kg. Tamoxifen is used as a positive control. Olive oil is used as a negative control. The test compounds are prepared as an olive oil solution (20 mg/mL). The mice are given the test compounds and Tamoxifen at the dosage of 35 mg/kg or olive oil once every day for 15 days. Then the mice are sacrificed and the tumor tissues are dissected from the mice and weighed. The tumor growth inhibition rate is a percentage calculated using the formula: tumor growth inhibition rate=(average weight of the tumor in the negative control−average weight of the tumor treated with test compound)/average weight of the tumor in the negative control.

[2] = test system: MCF7 cells; experiment: Cell apoptosis assay in ER-positive breast cancer MCF7 cells (cell number after treatment); type: cell-based, human; settings: 10 days
Excerpt: Cell Apoptosis Assay in ER-Positive Breast Cancer MCF7 Cells
MCF7 cell line is a breast cancer cell line that strongly expresses ER-α66, ER-α46 and ER-α36 (Relevance of breast cancer cell lines as models for breast tumours: an update. Marc Lacroix, Guy Leclercq, Breast Cancer Research and Treatment (2004) 83, 249-289; Wang et al., Proc. Natl. Acad. Sci. U.S.A. 103:9063-9068 (2006)). MCF7 cells obtained from ATCC are maintained in DMEM/F12 medium (Invitrogen) supplemented with 10% fetal calf serum at 37° C. in a 5% CO2 atmosphere. The MCF7 cells are treated with the test compounds 6, 8, 14, 22, 27, 29, 30, 31, 36 and 38 at concentrations from 1 μM to 25 μM to test the effect of these compounds on MCF7 cell growth for 10 days. The control assay is conducted with MCF7 cells under the same assay conditions except that no test compound is added. Treated cells are examined under a Nikon TS100 inverted microscope and photographed for morphological changes.

[3] = MCF-7, tested compound concentration 1 μM
[4] = MCF-7, tested compound concentration 5 μM
[5] = MCF-7, tested compound concentration 10 μM
[6] = MCF-7, tested compound concentration 15 μM
[7] = MCF-7, tested compound concentration 25 μM

| SMILES | inhibition in vivo at 35 mg/kg [1] [%] | Cell Number (×10^4) [2, 3] | Cell Number (×10^4) [2, 4] | Cell Number (×10^4) [2, 5] | Cell Number (×10^4) [2, 6] | Cell Number (×10^4) [2, 7] |
| --- | --- | --- | --- | --- | --- | --- |
| CC(C)=CCc1c(O)cc(O)c2c(=O)cc(-c3ccc(Cl)cc3)oc12 [Compound 22, 2-(4-chlorophenyl)-5,7-dihydroxy-8-(3-methylbut-2-enyl)-4H-chromen-4-one] | 66 | 39.0 ×10^4 | 21.6 ×10^4 | 15.6 ×10^4 | 4.2 ×10^4 | 0.6 ×10^4 |
| CC(C)=CCc1c(O)ccc2c(=O)cc(-c3ccncc3)oc12 [Compound 36, 7-hydroxy-8-(3-methylbut-2-enyl)-2-(pyridin-4-yl)-4H-chromen-4-one] | 56 | 25.6 ×10^4 | 14.8 ×10^4 | 10.65 ×10^4 | 3.65 ×10^4 | 1.4 ×10^4 |
| CC(C)=CCc1c(O)ccc2c(=O)cc(-c3ccc(C(F)(F)F)cc3)oc12 [Compound 29, 2-(4-(trifluoromethyl)phenyl)-7-hydroxy-8-(3-methylbut-2-enyl)-4H-chromen-4-one] | – | 27.9 ×10^4 | 30.1 ×10^4 | 24.3 ×10^4 | 23.4 ×10^4 | 12.3 ×10^4 |
| COc1ccc(-c2oc3c(CC=C(C)C)c(O)cc(O)c3c(=O)c2OC)cc1OC [Compound 5, 5,7-dihydroxy-3-methoxy-2-(3,4-dimethoxyphenyl)-8-(3-methylbut-2-enyl)-4H-chromen-4-one] | 26 | – | – | – | – | – |
| CC(C)=CCc1c(O)ccc2c(=O)cc(-c3ccc(F)cc3)oc12 [Compound 31, 2-(4-fluorophenyl)-7-hydroxy-8-(3-methylbut-2-enyl)-4H-chromen-4-one] | – | 24.0 ×10^4 | 25.5 ×10^4 | 27.25 ×10^4 | 9.6 ×10^4 | 7.5 ×10^4 |
| CC/C(=C(\c1ccccc1)c1ccc(OCCN(C)C)cc1)c1ccccc1 [Tamoxifen, reference compound] | 40 to 50 | – | – | – | – | – |
| COc1ccc(-c2oc3c(CCC(C)(C)N)c(O)cc(O)c3c(=O)c2O)cc1 [Compound 8, 8-(3-amino-3-methylbutyl)-3,5,7-trihydroxy-2-(4-methoxyphenyl)-4H-chromen-4-one] | 62 | 28.75 ×10^4 | 15.35 ×10^4 | 10.1 ×10^4 | 6.45 ×10^4 | 0.25 ×10^4 |
| CC(C)=CCc1c(O)ccc2c(=O)cc(-c3ccc(C)cc3)oc12 [Compound 30, 7-hydroxy-8-(3-methylbut-2-enyl)-2-(4-methylphenyl)-4H-chromen-4-one] | – | 21.1 ×10^4 | 10.8 ×10^4 | 5.8 ×10^4 | 3.6 ×10^4 | 1.5 ×10^4 |
| COc1c(-c2ccc(Cl)cc2)oc2c(CC=C(C)C)c(O)cc(O)c2c1=O [Compound 14, 2-(4-chlorophenyl)-5,7-dihydroxy-3-methoxy-8-(3-methylbut-2-enyl)-4H-chromen-4-one] | 37 | 30.05 ×10^4 | 14.54 ×10^4 | 2.51 ×10^4 | 0 ×10^4 | 0 ×10^4 |
| COc1ccc(-c2cc(=O)c3c(O)cc(O)c(CC=C(C)C)c3o2)cc1Cl [Compound 27, 2-(3-chloro-4-methoxyphenyl)-5,7-dihydroxy-8-(3-methylbut-2-enyl)-4H-chromen-4-one] | – | 59.4 ×10^4 | 45.2 ×10^4 | 5.4 ×10^4 | 1.05 ×10^4 | 0 ×10^4 |
| COc1ccc(-c2oc3c(CCC(C)(C)O)c(O)cc(O)c3c(=O)c2OC)cc1OC [Compound 6, 5,7-dihydroxy-8-(3-hydroxy-3-methylbutyl)-3-methoxy-2-(3,4-dimethoxyphenyl)-4H-chromen-4-one] | 44 | 18.35 ×10^4 | 8.97 ×10^4 | 3.95 ×10^4 | 3.9 ×10^4 | 3.87 ×10^4 |
| CC(C)=CCc1c(O)ccc2c(=O)cc(-c3cccnc3)oc12 [Compound 38, 7-hydroxy-8-(3-methylbut-2-enyl)-2-(pyridin-3-yl)-4H-chromen-4-one] | 24 | 27.8 ×10^4 | 19.66 ×10^4 | 13.8 ×10^4 | 10.1 ×10^4 | 2.6 ×10^4 |
